# Calls of active or inactive are those of the source.
# Key:
# [1] = Luminescence-based cell-based high throughput dose response assay to identify activators of the DAF-12 from the parasite S. stercoralis (ssDAF-12).; assay type: functional
# [2] = target: Disintegrin and metalloproteinase domain-containing protein 17 (Homo sapiens, UniProt P78536); experiment: exosite inhibitors of ADAM17, dose response, biochemical (AID 743260)
# [3] = ADAM10 protease inhibitors, dose response, selectivity assay for ADAM17 exosite inhibitor project, biochemical, FRET peptide substrate, recombinant human ADAM10 (AID 743259);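 further: ADAM10 enzyme cleaving a FRET peptide substrate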
# H9c2 = experiment: cells; assay type: functional, cell-based; conditions: Rattus norvegicus, H9c2, Myocardium;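 further: confirmatory concentration-response retest of ultra-high-throughput screening hits for modulation of myocardial damage; cell death induced by hydrogen peroxide oxidative stress; compound pretreatment for 60 min then peroxide exposure for 2 h; potency is for protecting the cells against peroxide damage rather than for killing them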
# Paired box protein Pax-8 = Paired box protein Pax-8 (Homo sapiens, UniProt Q06710); experiment: inhibitors of PAX8-driven TPO luciferase reporter, dose response, RMG-I cells, cherry-pick (AID 687027); assay type: functional, cell-based;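 further: luciferase reporter driven by Pax8 target thyroperoxidase promoter measured by SteadyGlo luminescence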
# [4] = non-specific cell cytotoxicity, dose response, cytotoxicity control for PAX8 inhibitor project, plate reader, dry powder samples (AID 743021); assay type: functional, cell-based
# [5] = inhibitors of PGC1a acetylation in cells, dose response, cell-based, cherry-picked samples (AID 720514); assay type: functional;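 further: potency may reflect raised or lowered acetylation signal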
# [6] = inhibitors of intracellular T. cruzi replication, confirmation, NIH3T3 host cells, beta-gal luminescence (AID 2044); assay type: functional, cell-based;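 further: intracellular parasites grown in NIH/3T3 mouse fibroblasts as host cells; luminescent beta-galactosidase reporter signal from transgenic T. cruzi replicating inside host cells; inhibitors lower the luminescence signal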
# [7] = cytotoxicity toward NIH3T3 fibroblasts, dose response, counter-screen, cell-based, ATP luminescence, mouse fibroblasts (AID 2010); assay type: functional;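 further: cells exposed to compound for about 90 hours before reading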
# [8] = target: T1, Rac GTPase-activating protein 1 (Homo sapiens, UniProt Q9H0H5); experiment: MgcRacGAP GTPase-activating activity inhibitors, confirmation, biochemical, ADP Hunter fluorescence, primary and confirmatory (AID 624330); assay type: functional
# T1 sequence (Q9H0H5 whole entry): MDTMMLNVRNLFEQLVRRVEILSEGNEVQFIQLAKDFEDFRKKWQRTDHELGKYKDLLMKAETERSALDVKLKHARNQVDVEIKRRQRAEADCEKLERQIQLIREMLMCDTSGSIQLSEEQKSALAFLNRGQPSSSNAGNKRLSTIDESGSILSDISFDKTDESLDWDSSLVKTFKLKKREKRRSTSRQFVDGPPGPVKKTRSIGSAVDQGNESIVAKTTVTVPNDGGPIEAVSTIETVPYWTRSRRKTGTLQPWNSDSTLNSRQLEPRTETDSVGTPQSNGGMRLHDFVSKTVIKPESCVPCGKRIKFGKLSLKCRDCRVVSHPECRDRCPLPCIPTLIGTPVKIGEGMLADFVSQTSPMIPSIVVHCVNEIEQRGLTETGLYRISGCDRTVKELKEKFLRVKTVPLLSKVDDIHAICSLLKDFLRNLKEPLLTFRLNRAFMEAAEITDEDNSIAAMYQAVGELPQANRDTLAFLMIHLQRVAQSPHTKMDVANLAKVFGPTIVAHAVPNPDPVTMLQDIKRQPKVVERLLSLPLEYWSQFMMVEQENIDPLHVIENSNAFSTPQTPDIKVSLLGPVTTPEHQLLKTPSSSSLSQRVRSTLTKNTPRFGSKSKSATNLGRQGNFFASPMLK
# cells [9] = experiment: cells
# [10] = target: T2, Oxysterols receptor LXR-beta (Homo sapiens, UniProt P55055); assay type: functional, cell-based;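 further: Cell-based luminescence dose-response assay of agonist activity at LXR, run as a confirmatory counterscreen to a daf-12 agonist screen; HEK293 cells with Gal4-LXR fusion and GAL4-driven luciferase reporter; agonist potency from rising luciferase signal of a Gal4-LXR reporter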
# T2 sequence (P55055 whole entry): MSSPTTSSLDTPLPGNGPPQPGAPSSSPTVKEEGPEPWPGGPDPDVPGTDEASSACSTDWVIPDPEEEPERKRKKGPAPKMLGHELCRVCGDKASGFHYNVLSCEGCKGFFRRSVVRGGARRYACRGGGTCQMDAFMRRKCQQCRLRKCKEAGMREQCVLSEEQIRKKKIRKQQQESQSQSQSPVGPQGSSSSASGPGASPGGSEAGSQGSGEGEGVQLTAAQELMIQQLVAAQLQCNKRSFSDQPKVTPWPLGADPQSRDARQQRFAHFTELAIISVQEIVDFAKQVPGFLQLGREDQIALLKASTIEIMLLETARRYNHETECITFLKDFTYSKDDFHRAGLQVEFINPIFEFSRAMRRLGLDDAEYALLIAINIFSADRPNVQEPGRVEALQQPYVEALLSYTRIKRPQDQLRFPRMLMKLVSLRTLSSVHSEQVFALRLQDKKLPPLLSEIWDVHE
# cells [11] = experiment: cells; remark: listed apart in the source
# [12] = target: Mitogen-activated protein kinase 10 (Homo sapiens, UniProt P53779); experiment: Dose response biochemical screening assay for inhibitors of c-Jun N-Terminal Kinase 3 (JNK3). [Related pubchem assays: 746 ]
# [13] = target: T3, RNA-binding protein pos-1 (Caenorhabditis elegans, UniProt G5EF15); experiment: inhibitors of POS-1/mex-3 RNA binding, dose response, biochemical, fluorescence polarization (AID 1964);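 further: purified POS-1 fused to maltose binding protein made in E. coli; potency of compounds blocking POS-1 binding to fluorescent RNA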
# T3 sequence (G5EF15 whole entry): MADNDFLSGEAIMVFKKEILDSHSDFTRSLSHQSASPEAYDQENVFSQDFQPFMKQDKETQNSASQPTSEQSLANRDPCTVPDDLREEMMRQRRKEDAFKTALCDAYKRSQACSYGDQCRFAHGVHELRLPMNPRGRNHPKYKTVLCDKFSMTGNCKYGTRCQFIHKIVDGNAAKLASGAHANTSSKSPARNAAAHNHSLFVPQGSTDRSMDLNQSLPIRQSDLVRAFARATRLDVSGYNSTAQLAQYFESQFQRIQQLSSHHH
# [14] = target: T4, Zinc finger protein mex-5 (Caenorhabditis elegans, UniProt Q9XUB2); experiment: MEX-5/TCR-2 RNA interaction inhibitors, dose response, biochemical, C. elegans, fluorescence polarization (AID 1960)
# T4 sequence (Q9XUB2 whole entry): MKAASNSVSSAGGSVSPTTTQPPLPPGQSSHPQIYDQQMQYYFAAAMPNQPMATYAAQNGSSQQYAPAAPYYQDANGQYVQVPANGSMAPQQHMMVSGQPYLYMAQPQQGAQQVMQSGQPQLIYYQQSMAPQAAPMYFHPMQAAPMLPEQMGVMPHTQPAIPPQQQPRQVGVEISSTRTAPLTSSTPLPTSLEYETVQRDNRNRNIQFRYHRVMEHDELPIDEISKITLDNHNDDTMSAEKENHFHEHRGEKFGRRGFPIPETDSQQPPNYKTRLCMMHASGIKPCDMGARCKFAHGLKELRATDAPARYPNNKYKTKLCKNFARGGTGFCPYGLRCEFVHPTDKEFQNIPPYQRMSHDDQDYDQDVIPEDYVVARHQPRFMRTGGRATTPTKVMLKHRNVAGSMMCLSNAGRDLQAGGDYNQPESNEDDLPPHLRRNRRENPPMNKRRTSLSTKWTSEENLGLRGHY
# Albumin = Albumin (Bos taurus, UniProt P02769); experiment: Counterscreen for inhibitors of T-cell receptor (TCR)-CD3 interaction: Fluorescence-based biochemical high throughput dose response assay to identify inhibitors of T-cell receptor (TCR)-CD3 interaction using a TAMRA-labeled BSA probe.; assay type: functional
# [15] = Luminescence Cell-Based Dose Response HTS to Identify Inhibitors of 5'UTR Stem-Loop Driven Prion Protein mRNA Translation in H4 Neuroglioblastoma Cells. [Related pubchem assays: 1827 (Project Summary), 1813 (Primary HTS)]; assay type: functional
# [16] = inhibitors of SNCA 5'UTR-driven reporter translation, confirmation, H4 neuroglioma cells, luminescence (AID 1988); assay type: functional, cell-based
# [17] = P. falciparum 3D7-ScDHODH growth inhibitors, dose response, SYBR Green, dry powder samples (AID 1159570); assay type: functional, cell-based;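 further: parasite growth measured after 72 hours of compound exposure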
# [18] = HepG2 cell cytotoxicity, dose response, cytotoxicity control, plate reader, dry powder samples (AID 1159569); assay type: functional, cell-based;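 further: inhibitor potency with signal falling toward the positive control level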
# [19] = P. falciparum Dd2 growth inhibitors, dose response, SYBR Green, cherry-picked samples (AID 1159567); assay type: functional, cell-based
# [20] = P. falciparum Dd2 growth inhibitors, dose response, SYBR Green, dry powder samples (AID 1159566); assay type: functional, cell-based;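 further: potency for growth inhibition with lower SYBR green DNA signal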
# [21] = HepG2 cell cytotoxicity, dose response, cytotoxicity control, cherry-picked samples (AID 1159577); assay type: functional, cell-based
# [22] = P. falciparum ATP4 D1247Y mutant growth inhibitors, dose response, NITD609-resistant line, SYBR Green, dry powder (AID 1159571); assay type: functional, cell-based;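 further: parasites synchronized at ring stage by sorbitol before testing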
# [23] = microbe, parasite or virus in culture; assay type: functional; conditions: Mycobacterium tuberculosis
# Disintegrin and metalloproteinase domain-containing protein 17, sequence (P78536 whole entry, the tested form may be a part): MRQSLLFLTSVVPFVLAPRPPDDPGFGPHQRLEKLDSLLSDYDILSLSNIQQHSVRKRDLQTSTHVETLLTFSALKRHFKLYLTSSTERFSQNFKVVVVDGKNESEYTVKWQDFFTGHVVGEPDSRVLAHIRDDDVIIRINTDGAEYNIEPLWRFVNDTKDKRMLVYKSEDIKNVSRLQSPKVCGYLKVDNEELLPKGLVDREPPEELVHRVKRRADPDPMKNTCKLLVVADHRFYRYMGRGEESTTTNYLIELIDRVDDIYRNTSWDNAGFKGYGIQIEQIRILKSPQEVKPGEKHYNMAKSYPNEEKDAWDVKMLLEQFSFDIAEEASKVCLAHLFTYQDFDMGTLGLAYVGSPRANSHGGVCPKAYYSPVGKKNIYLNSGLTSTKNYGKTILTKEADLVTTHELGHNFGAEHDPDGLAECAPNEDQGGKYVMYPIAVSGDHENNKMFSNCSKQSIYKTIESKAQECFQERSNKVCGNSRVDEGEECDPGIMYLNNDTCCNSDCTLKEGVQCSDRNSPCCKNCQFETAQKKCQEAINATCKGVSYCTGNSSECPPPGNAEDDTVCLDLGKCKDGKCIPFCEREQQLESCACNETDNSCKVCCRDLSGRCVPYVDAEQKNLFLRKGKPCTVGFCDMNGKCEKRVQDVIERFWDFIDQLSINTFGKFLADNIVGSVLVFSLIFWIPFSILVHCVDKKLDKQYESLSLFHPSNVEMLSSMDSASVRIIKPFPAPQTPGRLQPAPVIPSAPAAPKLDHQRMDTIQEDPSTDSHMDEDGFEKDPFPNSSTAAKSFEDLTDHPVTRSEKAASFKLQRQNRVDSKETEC
# Albumin, sequence (P02769 whole entry): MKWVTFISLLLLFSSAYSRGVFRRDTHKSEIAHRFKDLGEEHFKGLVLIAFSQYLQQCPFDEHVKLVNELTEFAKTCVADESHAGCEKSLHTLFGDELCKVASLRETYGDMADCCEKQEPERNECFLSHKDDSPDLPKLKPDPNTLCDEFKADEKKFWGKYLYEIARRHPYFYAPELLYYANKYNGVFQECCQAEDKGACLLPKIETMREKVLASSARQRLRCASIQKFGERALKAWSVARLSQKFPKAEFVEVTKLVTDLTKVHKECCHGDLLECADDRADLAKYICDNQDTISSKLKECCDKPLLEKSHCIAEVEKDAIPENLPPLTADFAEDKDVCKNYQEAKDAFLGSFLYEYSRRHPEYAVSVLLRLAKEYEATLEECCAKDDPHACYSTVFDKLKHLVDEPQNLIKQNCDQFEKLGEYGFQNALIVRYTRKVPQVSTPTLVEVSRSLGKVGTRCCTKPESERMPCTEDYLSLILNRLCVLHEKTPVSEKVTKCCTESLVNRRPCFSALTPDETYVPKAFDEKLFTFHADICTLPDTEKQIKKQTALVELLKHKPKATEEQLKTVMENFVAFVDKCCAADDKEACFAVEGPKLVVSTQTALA
# Paired box protein Pax-8, sequence (Q06710 whole entry): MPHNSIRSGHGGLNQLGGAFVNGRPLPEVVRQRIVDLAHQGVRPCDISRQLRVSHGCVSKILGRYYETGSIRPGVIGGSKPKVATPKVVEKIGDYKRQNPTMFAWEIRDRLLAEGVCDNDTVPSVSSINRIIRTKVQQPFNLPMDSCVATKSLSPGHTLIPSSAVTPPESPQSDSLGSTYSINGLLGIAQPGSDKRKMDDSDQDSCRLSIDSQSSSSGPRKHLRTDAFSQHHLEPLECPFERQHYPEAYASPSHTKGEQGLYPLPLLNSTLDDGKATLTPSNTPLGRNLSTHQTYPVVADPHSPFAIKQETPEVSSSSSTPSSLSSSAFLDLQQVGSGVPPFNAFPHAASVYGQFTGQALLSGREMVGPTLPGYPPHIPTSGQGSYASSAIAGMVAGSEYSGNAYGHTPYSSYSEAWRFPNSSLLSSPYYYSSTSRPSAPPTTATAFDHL
# Mitogen-activated protein kinase 10, sequence (P53779 whole entry, the tested form may be a part): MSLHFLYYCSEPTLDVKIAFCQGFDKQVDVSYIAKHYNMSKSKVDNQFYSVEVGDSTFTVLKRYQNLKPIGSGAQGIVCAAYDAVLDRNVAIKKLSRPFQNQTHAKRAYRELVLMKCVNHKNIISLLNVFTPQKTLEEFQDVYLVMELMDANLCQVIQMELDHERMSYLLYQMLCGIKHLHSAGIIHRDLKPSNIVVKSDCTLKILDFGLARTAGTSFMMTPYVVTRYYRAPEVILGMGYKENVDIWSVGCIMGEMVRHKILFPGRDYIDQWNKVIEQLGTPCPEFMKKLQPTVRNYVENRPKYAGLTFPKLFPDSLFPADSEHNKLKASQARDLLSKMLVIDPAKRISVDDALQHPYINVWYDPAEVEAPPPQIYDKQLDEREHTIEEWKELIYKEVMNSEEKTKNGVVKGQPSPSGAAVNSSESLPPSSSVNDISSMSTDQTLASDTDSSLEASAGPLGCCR
compound,measurement,setting,value
CC(=O)Nc1sc2c(c1-c1nc3ccccc3s1)CCCN(C(C)C)C2,IC50,[1],> 67.5 µM (inactive)
O=C(NC(=S)Nc1ccc2c(c1)OCCO2)c1cccc2ccccc12,IC50,[2],> 69.5 µM (inactive)
same,IC50,[3],> 69.5 µM (inactive)
CCC(c1nnnn1Cc1ccccc1)N1CCC(n2c(O)nc3ccccc32)CC1 (stereo not drawn),IC50,H9c2,> 79 µM (inactive)
same,AC50,Paired box protein Pax-8,3.8 µM (active)
same,AC50,[4],41.4 µM (active)
O=C1c2cccc(OCC(=O)N3CCCc4ccccc43)c2CCN1Cc1ccc(Br)cc1,IC50,[2],> 69.5 µM (inactive)
same,IC50,[3],> 69.5 µM (inactive)
COC(=O)c1nn(-c2ccccc2)ccc1=O,AC50,[5],5.56 µM (active)
Cc1cc(Cl)c(OCCOCCN2CCN(C)CC2)c(Br)c1,EC50,[6],< 0.1 µM (active)
same,EC50,[7],> 60 µM (not active)
same,IC50,[8],63.9 µM (active)
same,EC50,cells [9],0.294 µM (active)
Cc1ccc(-c2nnc(-c3cccc4ccccc34)o2)cc1,EC50,[10],> 67.5 µM (inactive)
same,EC50,cells [11],> 67.5 µM (inactive)
CC1(c2ccccc2)CC(C)(C)N(C(=O)c2cc([N+](=O)[O-])cc([N+](=O)[O-])c2)c2ccccc21 (stereo not drawn),EC50,[6],< 0.1 µM (active)
same,EC50,[7],5.58 µM (active)
same,EC50,cells [9],0.214 µM (active)
Cc1ccc(NC(=O)COC(=O)/C(=C/c2cccs2)c2cccs2)cc1S(=O)(=O)N(C)C,IC50,[2],> 69.5 µM (inactive)
same,IC50,[3],> 69.5 µM (inactive)
C[C@@H]1CN([C@@H](C)CO)C(=O)c2c(c3ccccc3n2C)-c2ccccc2CO[C@H]1CN(C)S(=O)(=O)c1ccsc1,AC50,[5],29.2 µM (active)
COc1cccc2c(O)c(C/C=C(/C)Cl)c(C)nc12,IC50,[12],75 µM (not active)
Cc1ccc(O)c(-c2cc(C(=O)Nc3ccc(S(=O)(=O)Nc4nccc(C)n4)cc3)[nH]n2)c1,EC50,[13],13.1 µM (inconclusive)
same,EC50,[14],6.59 µM (active)
same,IC50,Albumin,> 94.1 µM (inactive)
Cc1ccc2c(c1)s/c(=N/C(=O)c1cccs1)n2C,EC50,[15],4.15 µM (active)
same,EC50,[16],4.79 µM (active)
same,EC50,[10],> 67.6 µM (inactive)
same,EC50,cells [11],> 67.6 µM (inactive)
O=C(NNC(=O)c1cc(Cl)ccc1O)c1cccc(S(=O)(=O)N2CCOCC2)c1,EC50,[13],18.7 µM (inconclusive)
same,EC50,[14],11.6 µM (active)
same,IC50,Albumin,> 94.1 µM (inactive)
COc1ccccc1S(=O)(=O)N(C)C[C@@H]1Oc2cc(C#CCC3CCCC3)ccc2S(=O)(=O)N([C@H](C)CO)C[C@H]1C,AC50,[17],0.227 µM (active)
same,AC50,[18],23.8 µM (active)
same,AC50,[19],0.309 µM (active)
same,AC50,[20],0.146 µM (active)
same,AC50,[21],28.6 µM (active)
same,AC50,[22],0.104 µM (active)
COc1ccc2c3c(n(C)c2c1)[C@H](CO)NCC31CCN(CC2CCCC2)CC1,AC50,[17],0.449 µM (active)
same,AC50,[18],46.3 µM (active)
same,AC50,[19],0.738 µM (active)
same,AC50,[20],0.481 µM (active)
same,AC50,[21],35.5 µM (active)
same,AC50,[22],0.425 µM (active)
C[C@@H]1CN([C@@H](C)CO)S(=O)(=O)c2ccc(/C=C/c3ccccc3)cc2O[C@H]1CN(C)C(=O)c1ccc2c(c1)OCO2,AC50,[17],2.96 µM (active)
same,AC50,[18],87.3 µM (active)
same,AC50,[19],2.43 µM (active)
same,AC50,[20],2.09 µM (active)
same,AC50,[22],1.18 µM (active)
CCc1ccc(-n2nc3cc(C)c(N)cc3n2)cc1,CC50,[23],> 40 µM (active)
same,IC50,[1],> 67.5 µM (inactive)
same,EC50,[10],> 67.5 µM (inactive)
same,EC50,cells [11],> 67.5 µM (inactive)
